pIC50: −log10 of the molar value.
What was measured:
MAT2A homodimer = target: T1, MAT2A homodimer (Homo sapiens, UniProt P31153); assay: MAT2A biochemical assay (liberated phosphate, PiColorLock Gold); conditions: Table 5a; MAT2A biochemical assay; read-out: Enzyme Inhibition
T1 construct: inferred from the Ni sepharose purification and imidazole elution; made in house; host or cells: SF9 insect cells, recombinant baculovirus (Bac to Bac, pFASTBAC1)
Summary of the method: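 Baculovirus/Sf9-expressed, Ni-purified MAT2A homodimer preincubated with compound 60 min at 25 °C, then reacted 60 min at 25 °C with substrate mix of 500 μM ATP and 400 μM L-methionine, pH 7.0 (mix, not final levels). Phosphate released with SAM measured by PiColorLock Gold against phosphate standard curve.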

HCT116 MTAP-/- = assay: Inhibition of cellular proliferation (Cell Titer Glo), HCT116 MTAP-/-; type: cell-based, human; conditions: Homo sapiens, HCT-116, 96 h, Table 5a, 4 days, read-out: 4 Day Relative Growth Inhibition (MTAP −/−)
Procedure: (§1) Test compound impact on cancer cell growth was assessed by treating cancer cells with compound for 4 days and then measuring proliferation using an ATP-based cell proliferation readout (Cell Titer Glo, Promega Corporation).
(§2) In a typical assay an isogenic pair of HCT116 human colon carcinoma cell lines which vary only in MTAP deletion status (HCT116 MTAP+/+ and HCT116 MTAP−/−) were plated in 96-well dishes at appropriate cell density. Following 24 hours, cells were then treated with the candidate MAT2A inhibitor. […] Compound was then transferred to a working stock plate in cell culture media by adding 5 μL of compound in DMSO to 495 μL of cell culture media. This working stock was then added to cells via a further 5-fold dilution, by adding 25 μL of working stock to 100 μL of cells in culture media. Following compound addition, cells were incubated at 37° C./5% CO2 for 4 days.
(§3) The plate was then covered with aluminum foil and shaken for 15 minutes to ensure complete mixing and full cell lysis. […] This luminescence measure was converted to a proliferation index by subtracting from each data point the ATP luminescence signal measured from a bank (no cells) well and dividing by the ATP luminescence signal measured in 0.2% DMSO control well adjusted for signal in blank well.

HCT116 MTAP+/+ = assay: Inhibition of cellular proliferation (Cell Titer Glo), HCT116 MTAP+/+; type: cell-based; conditions: Homo sapiens, HCT-116, 96 h, Table 5a, 4 days, read-out: 4 Day Relative Growth Inhibition (MTAP +/+)
Procedure: as §1, §2, §3

[1] = test system: SAM in HCT116 MTAP-deleted cells; assay: Cellular assay of target engagement (SAM), LC-MS/MS; type: cell-based, human; conditions: Homo sapiens, HCT-116, Table 5a, 72 h, read-out: Cell 72 h SAM Inhibition (MTAP −/−)
Procedure: Measurement of MAT2A activity in cells was made by direct quantitation of the abundance of the product of its enzymatic activity, SAM. Cancer cells were treated with candidate MAT2A inhibitors for a suitable incubation period, and the cells were then lysed using a reagent which quenched any further enzyme activity. Soluble metabolites including SAM were collected and SAM itself was directly measured from the lysate using quantitative LC-MS/MS.
A typical assay was performed using an HCT116 human colon carcinoma cell line which was genetically engineered to delete the MTAP gene (commercially available from Horizon Discovery). […] Cells were plated in 96-well dishes at appropriate cell density. Following 24 hours, cells were then treated with the candidate MAT2A inhibitor. […] Compound was then transferred to a working stock plate in cell culture media by adding 5 μL of compound in DMSO to 495 μL of cell culture media. This working stock was then added to cells via a further 5-fold dilution, by adding 25 μL of working stock to 100 μL of cells in culture media. Following compound addition, cells were incubated at 37° C./5% CO2 for 72 hrs.
To quantitate SAM levels following compound treatment, cells were gently washed once in ammonium carbonate buffer (75 mM at pH 7.4), placed on dry ice, and lysed with metabolite extraction buffer (80% cold methanol and 20% water (v/v) with acetic acid at 1M final concentration with 200 ng/mL deuterated d3-SAM as internal control). Following centrifugation at 4° C. at 3,200 rpm for 30 minutes, the supernatant was collected and stored at −80° C. until analysis by Liquid Chromatography with tandem Mass Spectrometry (LC-MS/MS). LC-MS/MS analysis was performed using an API6500 Mass Spectrometer (Sciex, Framingham, Mass., USA) operating in positive ion spray mode and equipped with a Waters UPLC Acquity (Waters, Milford, Mass., USA) BEH Amide column.

T1 sequence (P31153 whole entry): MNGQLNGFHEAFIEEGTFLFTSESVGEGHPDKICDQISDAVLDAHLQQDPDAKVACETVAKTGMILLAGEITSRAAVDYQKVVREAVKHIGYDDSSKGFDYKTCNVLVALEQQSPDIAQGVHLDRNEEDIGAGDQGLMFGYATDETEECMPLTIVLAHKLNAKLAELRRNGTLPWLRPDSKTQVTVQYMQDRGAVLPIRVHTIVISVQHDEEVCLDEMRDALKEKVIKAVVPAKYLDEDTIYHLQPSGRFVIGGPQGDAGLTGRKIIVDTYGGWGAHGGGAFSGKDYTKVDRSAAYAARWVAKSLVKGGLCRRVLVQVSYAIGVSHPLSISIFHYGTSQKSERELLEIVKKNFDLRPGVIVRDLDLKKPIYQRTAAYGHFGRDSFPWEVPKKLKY

pIC50 (MAT2A homodimer) | pIC50 (HCT116 MTAP-/-) | pIC50 (HCT116 MTAP+/+) | pIC50 [1] | SMILES
> 7.00 | 6.00 to 7.00 | < 6.00 | 6.00 to 7.00 | CCOc1ccc2c(n1)N(c1ccc(OC(F)F)cc1)C(=O)N(c1ccc3nccn3c1)C2 [Example 101, 1-(4-(difluoromethoxy)phenyl)-7-ethoxy-3-(imidazo[1,2-a]pyridin-6-yl)-3,4-dihydropyrido[2,3-d]pyrimidin-2(1H)-one]
> 7.00 | 6.00 to 7.00 | < 6.00 | > 7.00 | [2H]C([2H])([2H])Oc1ccc(N2C(=O)N(c3ccc4ncsc4c3)Cc3ccc(OCC(F)F)nc32)cc1 [Example 102, 3-(benzo[d]thiazol-6-yl)-7-(2,2-difluoroethoxy)-1-(4-(methoxy-d3)phenyl)-3,4-dihydropyrido[2,3-d]pyrimidin-2(1H)-one]
> 7.00 | > 7.00 | < 6.00 | > 7.00 | [2H]C([2H])([2H])Oc1ccc(N2C(=O)N(c3ccc4nn(C)c(OC([2H])([2H])[2H])c4c3)Cc3ccc(OCC(F)F)nc32)cc1 [Example 103, 7-(2,2-difluoroethoxy)-3-(3-(methoxy-d3)-2-methyl-2H-indazol-5-yl)-1-(4-(methoxy-d3)phenyl)-3,4-dihydropyrido[2,3-d]pyrimidin-2(1H)-one]
> 7.00 | > 7.00 | 6.00 to 7.00 | > 7.00 | [2H]C([2H])([2H])Oc1ccc(N2C(=O)N(c3ccc4nn(C)c(OC)c4c3)Cc3ccc(OCC(F)F)nc32)cc1 [Example 104, 7-(2,2-difluoroethoxy)-3-(3-methoxy-2-methyl-2H-indazol-5-yl)-1-(4-(methoxy-d3)phenyl)-3,4-dihydropyrido[2,3-d]pyrimidin-2(1H)-one]
> 7.00 | > 7.00 | 6.00 to 7.00 | > 7.00 | [2H]C([2H])([2H])Oc1ccc(N2C(=O)N(c3ccc4nn(C)c(C)c4c3)Cc3ccc(OCC(F)F)nc32)cc1 [Example 105, 7-(2,2-difluoroethoxy)-3-(2,3-dimethyl-2H-indazol-5-yl)-1-(4-(methoxy-d3)phenyl)-3,4-dihydropyrido[2,3-d]pyrimidin-2(1H)-one]
> 7.00 | 6.00 to 7.00 | < 6.00 | > 7.00 | CCOc1ccc2c(n1)N(c1ccc(OC(F)F)cc1)C(=O)N(c1ccn3nccc3c1)C2 [Example 106, 1-(4-(difluoromethoxy)phenyl)-7-ethoxy-3-(pyrazolo[1,5-a]pyridin-5-yl)-3,4-dihydropyrido[2,3-d]pyrimidin-2(1H)-one]
> 7.00 | 6.00 to 7.00 | < 6.00 | 6.00 to 7.00 | CCOc1ccc2c(n1)N(c1ccc(OC(F)F)cc1)C(=O)N(c1ccc(=O)n(C)c1)C2 [Example 107, 1-(4-(difluoromethoxy)phenyl)-7-ethoxy-3-(1-methyl-6-oxo-1,6-dihydropyridin-3-yl)-3,4-dihydropyrido[2,3-d]pyrimidin-2(1H)-one]
> 7.00 | 6.00 to 7.00 | < 6.00 | 6.00 to 7.00 | CCOc1ccc2c(n1)N(c1ccc(OC(F)F)cc1)C(=O)N(c1ccc3nncn3c1)C2 [Example 108, 3-([1,2,4]triazolo[4,3-a]pyridin-6-yl)-1-(4-(difluoromethoxy)phenyl)-7-ethoxy-3,4-dihydropyrido[2,3-d]pyrimidin-2(1H)-one]
> 7.00 | 6.00 to 7.00 | < 6.00 | > 7.00 | CCOc1ccc2c(n1)N(c1ccc(OC(F)F)cc1)C(=O)N(c1ccc3nnn(C)c3c1)C2 [Example 109]
> 7.00 | 6.00 to 7.00 | < 6.00 | > 7.00 | CCOc1ccc2c(n1)N(c1ccc(OC(F)F)cc1)C(=O)N(c1ccc3nn(C)nc3c1)C2 [Example 110, 1-(4-(difluoromethoxy)phenyl)-7-ethoxy-3-(2-methyl-2H-benzo[d][1,2,3]triazol-5-yl)-3,4-dihydropyrido[2,3-d]pyrimidin-2(1H)-one]
> 7.00 | 6.00 to 7.00 | < 6.00 | 6.00 to 7.00 | CCOc1ccc2c(n1)N(c1ccc(OC(F)F)cc1)C(=O)N(c1ccc3ncccc3c1)C2 [Example 112, 1-(4-(difluoromethoxy)phenyl)-7-ethoxy-3-(quinolin-6-yl)-3,4-dihydropyrido[2,3-d]pyrimidin-2(1H)-one]
> 7.00 | > 7.00 | < 6.00 | > 7.00 | COc1ccc(N2Cc3ccc(NCC(F)(F)F)nc3N(c3ccc(-c4ncn[nH]4)cc3)C2=O)cc1 [Example 113, 1-(4-(1H-1,2,4-triazol-5-yl)phenyl)-3-(4-methoxyphenyl)-7-((2,2,2-trifluoroethyl)amino)-3,4-dihydropyrido[2,3-d]pyrimidin-2(1H)-one]
> 7.00 | > 7.00 | < 6.00 | > 7.00 | Cn1cc2cc(N3Cc4ccc(NCC(F)(F)F)nc4N(c4ccc(-c5nc[nH]n5)cc4)C3=O)ccc2n1 [Example 114, 1-(4-(1H-1,2,4-triazol-3-yl)phenyl)-3-(2-methyl-2H-indazol-5-yl)-7-((2,2,2-trifluoroethyl)amino)-3,4-dihydropyrido[2,3-d]pyrimidin-2(1H)-one]
> 7.00 | > 7.00 | < 6.00 | 6.00 to 7.00 | [2H]C([2H])([2H])Oc1ccc(N2C(=O)N(c3ccc4nn(C5CC5)cc4c3)Cc3ccc(OCC(F)F)nc32)cc1 [Example 115, 3-(2-cyclopropyl-2H-indazol-5-yl)-7-(2,2-difluoroethoxy)-1-(4-methoxy-d3-phenyl)-3,4-dihydropyrido[2,3-d]pyrimidin-2(1H)-one]
> 7.00 | > 7.00 | < 6.00 | 6.00 to 7.00 | [2H]C([2H])([2H])Oc1ccc(N2C(=O)N(c3ccc4nn(C(C)C)cc4c3)Cc3ccc(OCC(F)F)nc32)cc1 [Example 118, 7-(2,2-difluoroethoxy)-3-(2-isopropyl-2H-indazol-5-yl)-1-(4-methoxy-d3-phenyl)-3,4-dihydropyrido[2,3-d]pyrimidin-2(1H)-one]
> 7.00 | 6.00 to 7.00 | < 6.00 | > 7.00 | [2H]C([2H])([2H])Oc1ccc(N2C(=O)N(c3ccc4nn(CC(F)F)cc4c3)Cc3ccc(OCC(F)F)nc32)cc1 [Example 119, 7-(2,2-difluoroethoxy)-3-(2-(2,2-difluoroethyl)-2H-indazol-5-yl)-1-(4-methoxy-d3-phenyl)-3,4-dihydropyrido[2,3-d]pyrimidin-2(1H)-one]
> 7.00 | 6.00 to 7.00 | < 6.00 | 6.00 to 7.00 | [2H]C([2H])([2H])Oc1ccc(N2C(=O)N(c3ccc4nn(CC(F)(F)F)cc4c3)Cc3ccc(OCC(F)F)nc32)cc1 [Example 120, 7-(2,2-difluoroethoxy)-1-(4-methoxy-d3-phenyl)-3-(2-(2,2,2-trifluoroethyl)-2H-indazol-5-yl)-3,4-dihydropyrido[2,3-d]pyrimidin-2(1H)-one]
> 7.00 | 6.00 to 7.00 | – | 6.00 to 7.00 | COc1ccc(N2C(=O)N(c3ccc4nccnc4c3)Cc3cnc(NCC(F)(F)F)nc32)cc1 [Example 233, 1-(4-methoxyphenyl)-3-(quinoxalin-6-yl)-7-((2,2,2-trifluoroethyl)amino)-3,4-dihydropyrimido[4,5-d]pyrimidin-2(1H)-one]

Reference: patent US20220098203A1 (priority 2018, published 2022)
